Results published in US10537552B2, “Substituted 5-hydroxyoxindoles and their use as analgesics and fever reducers” (CARAFE DRUG INNOVATION, LLC, priority 2015, dated 2020).

Tests used:
[1] = tested on: liver (acute liver toxicity); assay: liver histology (pathohistological examination); assay type: in vivo, C57BL/6 mice; settings: mouse, in vivo
Description: In all experiments, mice were fasted overnight and then allocated randomly to receive either acetaminophen or equimolar dose of 5-hydroxy-7-methyloxindole by the intragastric route. Food was returned 4 h after the treatment. The two experimental groups were:
(a) Lower-dose group: Mice were administered acetaminophen (300 mg/kg) or 5-hydroxy-7-methyloxindole (324 mg/kg). After 7 h, the mice were sacrificed and liver and blood samples were taken for the analysis.
Seven hours after receiving the second injection, mice were sacrificed and liver and blood samples were taken for analysis.
A portion of the liver lobes of each mouse was fixed in 4% buffered paraformaldehyde, dehydrated in increasing concentrations of ethanol, and embedded in paraffin. Then, sections of tissue were cut to […] thickness using a rotary microtome, stained with hematoxylin and eosin, and then analyzed under a microscope.

[2] = tested on: acetic acid-induced writhing responses; assay: acetic acid writhing test (abdominal irritant test), Example 10; assay type: in vivo, C57/B16 mice; settings: C57/B16 mice
Description: This example compares the antinociception (animal equivalent of analgesia) produced by the oral administration of 5-hydroxy-7-methyloxindole vs. acetaminophen. Initial studies were performed using 10% DMSO/Cremophor™ as the vehicle. To enable a comparison with other datasets, 5-hydroxy-7-methyloxindole was subsequently tested using 6% Tween 20® reagent as the vehicle.
Male C57/B16 mice (Taconic), 8 weeks of age, were used in this study. The mice were received at Drexel University at least one week prior to testing and housed in standard polycarbonate cages with filter tops. Experiments were done in accordance with the guidelines of the National Institutes of Health and with the guidelines of the Committee for Research and Ethical Issues of IASP and were approved by the Animal Care and Use Committee of Drexel University College of Medicine. Four to five animals were housed per cage and food and water were provided ad libitum. Prior to initiation of the study, the animals were examined to assure adequate health and suitability. Mice were maintained on a 12/12 light/dark cycle and room temperature was maintained between 20 and 23° C. with a relative humidity maintained between 30% and 70%.
Compounds were administered orally 10 mL/kg, with a 30 minute pretreatment time. All compounds were tested in naïve animals. Each compound was dissolved in DMSO as a stock solution and mixed with Cremophor™ (1:1 v/v) before testing. The mixed solutions were diluted 1:4 with sterile water (the final concentration of DMSO/Cremophor™ reagent was 10%) immediately before administration to maximize the amount of compound in solution and improve the uniformity of any compound substance remaining in suspension. It is possible that some of the drug was in suspension at the time of administration. Each compound was initially tested in 5 mice at a dose of 300 mg/kg in the writhing test to assess their ability to alleviate abdominal pain. Based on the results of the initial test, the dose-response relationship for each active compound was determined by measuring the level of analgesia produced by at least 3 escalating doses of the test compound. The measurement of inhibition of writhing for acetaminophen and 5-hydroxy-7-methyloxindole were repeated using 6% Tween® 20 reagent as the vehicle. In this case, both compounds were clearly in suspension when administered to the animals.
A modified version of the standard abdominal irritant test was used to assess analgesia. Mice were habituated for 1 h in a transparent test box (5×5×10 inches) before any injections. Vehicle or test compound was administered p.o. (per os) 30 min prior to an intraperitoneal (i.p.) injection of 0.6% acetic acid (10 mL/kg) and the number of writhing responses (stretching of the hind limbs accompanied by a contraction of the abdominal muscles) to the acetic acid injection were counted over the subsequent 30 min period. The mice from each cage were randomly assigned to the dosing groups and the mice from each group were injected in a random order.
The one-way ANOVA was used to determine significant difference from the vehicle control treated animal. Dose response data for 5-hydroxy-7-methyloxindole was fit by non-linear regression analysis to a logit model to provide an estimate of ED50.

[3] = tested on: acetic acid-induced behavioral response; assay: abdominal constriction response test (acetic acid), Example 9; assay type: in vivo; settings: B6C3F1 mice, FIG. 1; for inhibition of acetic acid-induced behavioral response: p.o. 30 min before i.p. 0.9% acetic acid, DMSO/2% methylcellulose, acetaminophen 75 to 300 mg/kg
Description: The example was performed to compare the antinociception (animal equivalent of analgesia) produced by the oral administration of 5-hydroxyoxindole vs acetaminophen in a standard model in mice. Male B6C3F1 mice (Taconic), 8-10 weeks of age were utilized. The mice were received at the facility at least one week prior to testing and housed in standard polycarbonate cages with filter tops. The experiments were done in accordance with the guidelines of the National Institutes of Health (NIH) and with the guidelines of the Committee for Research and Ethical Issues of the IASP (International Association for the Study of Pain) and were approved by the Institutional Animal Care and Use Committee (IACUC) of Taconic Laboratories. Four or five animals were housed per cage and food and water were provided ad libitum. Prior to initiation of the study, the mice were examined to assure adequate health and suitability. They were maintained on a 12 h/12 h light/dark cycle and room temperature was maintained between 20 and 23° C. with a relative humidity maintained between 30 and 70%. All compounds were tested in naïve animals. All compounds were administered orally 10 mL/kg, with a 30 minute pretreatment time. Each compound was dissolved in DMSO as a stock solution and mixed with methylcellulose (2%) before testing. Each compound was initially tested in five mice at a dose of 300 mg/kg in the abdominal constriction response test (Collier, British Journal of Pharmacology and Chemotherapy 32(2): 295-310, 1968). Based upon the results of the initial test, the dose-response relationship for each active compound was determined by measuring the level of analgesia produced by at least 3 escalating doses of the test compound. […] Vehicle or test compound was administered p.o. (per os) 30 min prior to an intraperitoneal (i.p.) injection of 0.9% acetic acid (10 mL/kg) and the number of responses (stretching of the hind limbs accompanied by a contraction of the abdominal muscles) to the acetic acid injection were counted over the subsequent 30 min period. […]

Structure (SMILES): CC(=O)Nc1ccc(O)cc1 [acetaminophen, N-(4-Hydroxyphenyl)acetamide, reference compound]
- liver injury on pathohistological examination [1]: acute liver injury in all of the mice
- inhibition of acetic acid-induced response (writhing) ([2]; p.o. 30 min before i.p. 0.6% acetic acid, 10% DMSO/Cremophor vehicle, 30 to 300 mg/kg, FIG. 2, 3): robust and dose-related inhibition
- inhibition of acetic acid-induced response (writhing) ([2]; p.o., 6% Tween 20 vehicle (suspension), 100 and 300 mg/kg, FIG. 5, 6): Only a 300 mg/kg dose produced significant inhibition
- inhibition of acetic acid-induced behavioral response [3]: robust and dose-related inhibition

Structure (SMILES): O=C1Cc2cc(O)ccc2N1 [Example 5-HI, 5-hydroxyoxindole]
- inhibition of acetic acid-induced behavioral response [3]: statistically significant, dose-related inhibition
- dose needed for same analgesic efficacy as acetaminophen ([3]; p.o.): higher doses of 5-HI were required
